Assay results from patent US20190070139A1, “AGENT FOR IMPROVING PHYSICAL FITNESS” (AJINOMOTO CO., INC, priority 2016, published 2019).

Experiments:
[1] = tested on: glycogen in gastrocnemius muscle; experiment: Amount of glycogen in gastrocnemius muscle; assay type: in vivo, mouse; details: Experimental Example 1; next day after 3-day continuous exercise; Ex+Cyt (2 wt % cystine diet) vs Ex
Method: 6-Week-old male CD2F1 mice (CHARLES RIVER LABORATORIES JAPAN, INC.) were divided into 3 groups of a group with ingestion of a normal diet (AIN-93G composition) and without exercise (non-exercise group), a group with ingestion of a normal diet and with exercise (exercise group), and a group with ingestion of a diet containing 2 wt % cystine (free form), which was prepared by replacing casein in the normal diet with cystine, and with exercise (exercise+2% cystine group). Each group ingested a test diet (normal diet or normal diet containing 2 wt % cystine) for 8 days. Thereafter, the exercise group and the exercise+2% cystine group were made to run on a treadmill until exhaustion for 3 consecutive days, and the running time until then was measured (FIG. 1). The non-exercise group was fasted and deprived of water during running of the other two groups. On the next day after completion of the 3-day running, the muscle of the mice in each group was collected, and the amount of glycogen in the muscle was measured. The amount of glycogen in muscle was measured as follows. […] Glucose in this solution was detected and quantified using “glucose CII-Test Wako” (manufactured by Wako Pure Chemical Industries, Ltd.). […] The groups with exercise were forced to run in a treadmill until exhaustion for 2 consecutive days and the running time then was measured. […]

male CD2F1 mice = experiment: Treadmill running until exhaustion (endurance capacity); assay type: in vivo, mouse
Method: 6-Week-old male CD2F1 mice (CHARLES RIVER LABORATORIES JAPAN, INC.) were divided into 3 groups of a group with ingestion of a normal diet (AIN-93G composition) and without exercise (non-exercise group), a group with ingestion of a normal diet and with exercise (exercise group), and a group with ingestion of a diet containing 2 wt % cystine (free form), which was prepared by replacing casein in the normal diet with cystine, and with exercise (exercise+2% cystine group). Each group ingested a test diet (normal diet or normal diet containing 2 wt % cystine) for 8 days. Thereafter, the exercise group and the exercise+2% cystine group were made to run on a treadmill until exhaustion for 3 consecutive days, and the running time until then was measured (FIG. 1). […] On the next day after completion of the 3-day running, the muscle of the mice in each group was collected, and the amount of glycogen in the muscle was measured. […] Thereafter, the mice were forced to run until exhaustion under the exercise conditions similar to those in Experimental Example 1, and the running time then was measured. […] The next day, the mice were made to run until exhaustion under the exercise conditions similar to those in Experimental Example 1, and the running time then was measured. The amount of increase in the running time was calculated as an endurance-improving effect. […]

NC(CSSCC(N)C(=O)O)C(=O)O (stereo not drawn) [cystine, 3,3′-dithiobis(2-aminopropanoic acid)]
amount of glycogen in gastrocnemius muscle [1]: further significantly (P<0.05) increased | amount of increase in the running time by exercise (male CD2F1 mice; Experimental Example 1, diet containing 2 wt % cystine for 8 days, then running until exhaustion for 3 consecutive days, Ex+Cyt vs Ex (normal diet)): significantly (P<0.05 or P<0.01) higher | amount of increase in the running time (male CD2F1 mice; Experimental Example 2, 2 wt % cystine diet given for one day after exercise on day 1, day 2 minus day 1, Ex+Cyt vs Ex): tended to be higher
